Key:
eye of a subject = test: IOP over time in a patient with a bimatoprost-loaded insert on one eye (FIG. 23); type: in vivo, human; conditions: right eye (OD) with ring insert, silicone matrix (NuSil Med 4810) with about 2% bimatoprost, decreased from about 22 mm Hg, to about 28 days post-op
Text: (§1) Test devices comprising a ring shaped retention structure comprising a nylon suture and a support structure 120 having inclined surfaces were placed in an eye of a subject. The support structure comprised a therapeutic agent contained in a silicone matrix. The silicone matrix comprised inclusions of the therapeutic agent as described herein, and the therapeutic agent comprised a prostaglandin. The silicone matrix comprised NuSil Med 4810 and the amount prostaglandin comprised about 2% bimatoprost. The cross-sectional diameter of the support comprising the matrix was about 1 mm and extended about 90 degrees around the ring shaped suture with the suture extending there through. The amount of therapeutic agent within the matrix can be increased with additional studies and embodiments, for example to within a range from about 5-10% prostaglandin such as bimatoprost. […] The ring was inserted in the right eye (OD) and the TOP decreased from about 22 mm Hg to within a range from about 15 to 18 mm Hg to about 28 days post-op. The TOP of the untreated left eye (OS) remained substantially constant and within a range from about 19 mm Hg to about 22 mm Hg. The therapeutic agent comprised a prostaglandin, bimatoprost, and the estimated amount released per day started at approximately 22 ug/day and decreased to approximately 1 ug/day. […]

[1] = Estimated amount of bimatoprost released per day from the Experiment 6 test device; type: physicochemical; conditions: insert with about 2% bimatoprost in silicone matrix
Text: as §1

[2] = Rate of release of bimatoprost from insert with silicone matrix (FIGS. 26A, 26B); type: physicochemical
Description: FIGS. 26A and 26B show rates of release of prostaglandin comprising bimatoprost from an insert comprising a silicone matrix. The estimated rate of release for a matrix having 7% prostaglandin comprising bimatoprost loaded on the insert is above 3.5 ug per day for at least about 90 days. The rate of release of prostaglandin comprising bimatoprost was measured from a matrix comprising medical grade silicone having an approximate durometer of 10 A. The configuration of the insert and matrix is described in Table 3 with reverence to mono v.1 which comprises a 1 mm diameter silicone matrix extending along a 75 degree arc length. The surface area was 47.9 mm^2 and the volume 10.4 mm^3. For the 7% loading the amount of drug loaded on the device was about 700 μg. The rate of release of about 0.9 ug/day for 90 days was measured and the rate of release for 120 days was estimated. The therapeutic agent was released for 70 days above 1 ug per day. Based on Table 3, the matrix can be configured to release additional amounts therapeutic agent. For example, the rate of release can be increased by more than 4× by extending the matrix 360 degrees around the suture.

[3] = Wash time in 70% isopropanol bath and rate of release from silicone matrices (FIG. 27); type: physicochemical; conditions: silicone ring with 7% bimatoprost; for elution rate: initial
Description: The experiments were conducted with silicone rings having 7% prostaglandin comprising bimatoprost and medical grade silicone having a rated durometer of Shore A 10 without drug. The elution rate for the unwashed matrix (“0 wash”) was about 35 ug per day and decreased substantially. […] By day 14 the rate of release was substantially the same for each of the unwashed matrix, the matrix washed for 15 minutes, matrix washed for 60 minutes, and the matrix washed for 180 minutes.

eye of a test subject = test: IOP of a test subject wearing successive inserts (FIG. 28); type: in vivo, human
Description: The initial studies on the test subject appear to indicate it may be helpful to provide greater amounts of therapeutic agent than would be provided based on eye drop estimates. The TOP was measured and amounts of therapeutic agent estimated. […] The twin insert was placed in a solution when the patient insert was placed in the eye. The measured rate of release of the twin placed in solution was used to determine the rate of release of the insert placed in the eye. The data of this small study indicate that in at least some instances for some patients, the target threshold amount of therapeutic agent released continuously from an insert placed in the eye may be greater than the amount provided to tissue by drops. It was observed that providing amounts of therapeutic agent greater than the estimated amount provided by drops may provide an improved result. It was observed that after about sixty days the TOP had increased to about 19.5 mm Hg was close to the control eye, and the determined rate of release was about 1.2 ug of prostaglandin comprising bimatoprost per day. The insert was replaced with a second insert providing a rate of release of about 1.6 to 2.5 ug per day based on twin measurements, and the TOP decreased to within a range from about 17 to 18 mm Hg. The second insert was replaced with a third insert providing over 3.8 to 4 ug per day based on twin measurements, and the TOP decreased further to within a range from 14.5 to 16 mm Hg.

[4] = Rate of release measured on twin insert placed in solution (FIG. 28); type: physicochemical; conditions: for rate of release: based on twin measurements
Description: The initial studies on the test subject appear to indicate it may be helpful to provide greater amounts of therapeutic agent than would be provided based on eye drop estimates. The TOP was measured and amounts of therapeutic agent estimated. […] The twin insert was placed in a solution when the patient insert was placed in the eye. The measured rate of release of the twin placed in solution was used to determine the rate of release of the insert placed in the eye.

[5] = 60 minute wash in 70% isopropanol
[6] = 180 minute wash in 70% isopropanol

Structure (SMILES): CCNC(=O)CCC/C=C\C[C@@H]1[C@@H](/C=C/[C@@H](O)CCc2ccccc2)[C@H](O)C[C@@H]1O [bimatoprost]
- TOP (eye of a subject): 15 to 18 mm Hg
- estimated amount released per day, end ([1]; decreased to): about 1 ug/day
- estimated amount released per day, start ([1]; started at): about 22 ug/day
- estimated rate of release ([2]; matrix having 7% bimatoprost loaded on an insert, for at least about 120 days): above 3 ug per day
- estimated rate of release ([2]; matrix having 7% bimatoprost loaded on the insert, for at least about 90 days): above 3.5 ug per day
- rate of release ([2]; mono v.1: 1 mm diameter 10 A silicone matrix, 75 degree arc, 7% loading (about 700 μg), measured for 90 days): about 0.9 ug/day
- initial rate of release [3, 5]: about 13 ug per day
- rate of release at 15 days [3, 5]: about 5 ug per day
- initial rate of release [3, 6]: about 13 ug per day
- rate of release at 15 days [3, 6]: about 5 ug per day
- elution rate ([3]; unwashed matrix (0 wash)): about 35 ug per day
- elution rate ([3]; washed for 15 minutes in 70% isopropanol): about 17 ug per day
- TOP (eye of a test subject; first insert, after about sixty days, close to the control eye): about 19.5 mm Hg
- TOP (eye of a test subject; second insert): 17 to 18 mm Hg
- TOP (eye of a test subject; third insert): 14.5 to 16 mm Hg
- determined rate of release ([4]; first insert, after about sixty days, twin insert in solution): about 1.2 ug per day
- rate of release ([4]; second insert): 1.6 to 2.5 ug per day
- rate of release ([4]; third insert): 3.8 to 4 ug per day
